The text below walks through data of patent US20050272808A1, “Compositions and methods for the treatment of hypertension” (priority 2004, published 2005).

In data set [1] the test system is Spontaneously Hypertensive Rats (SHR). The data set is described as follows: Systemic blood pressure of anesthetized Spontaneously Hypertensive Rats (i.v. bolus or p.o. intra stomach). The data set is classed as in vivo, rat. As for the experimental part: Spontaneously Hypertensive Rats, (Harlan USA) 290-330 gr weight, were anaesthetized with 100-120 mg/kg Inactin in one single bolus injection i.p. The chest was shaven, and animal was secured in supine position. Anaesthetized rats were subject to tracheotomy with 18G catheter. The left femoral vein was cannulated for drug administration and infusion.
For measurement of hemodynamic parameters a cannula was inserted retrogradely into the left carotid artery. The tip of the catheter was positioned close to the origin of the subclavian artery. The catheter was connected to a blood pressure measurement system (BioPac MP100 workstation, BioPac System inc.). ECG was recorded by BioPac MP100 workstation. The information was saved electronically.
During the experiment 1 ml/h of Hartmann's solution was infused i.v.
Alternatively an 80-125 mg/Kg of MCT-based formulation was injected p.o. intra stomach.

In data set [2] the test system is Male Sprague-Dawley rats. Put plainly: Systemic blood pressure and ECG of normotensive anesthetized rats, i.v. bolus injection. The data set is classed as in vivo. As for the experimental part:
Male Sprague-Dawley rats, weighing 250-350 grams were anaesthetized with mixture of Ketamine (90 mg/Kg body weight) and Xylazine (10 mg/Kg body weight) in a single bolus injection. The rats' chest was shaven; and the rats were secured in supine position. Anaesthetized rats were intubated with 18G catheter, connected to a ventilator [Harvard Apparatus] and ventilated with a room air (volume: 2 ml, rate: 70 per min). The left femoral vein was cannulated for drug administration, which is standardized to injections of 0.2 ml/100 grams body weight over a period of 0.5-1 minutes.
For measurement of hemodynamic parameters [blood pressure (BP), heart rate (HR)] a cannula was inserted retrogradely into the left carotid artery. The tip of the catheter was positioned close to the origin of the subclavian artery.
For continuous monitoring of blood pressure (systolic and diastolic pressure) and heart rate, the catheter was connected to a pressure transducer [Grass instrument co., Quincy, Mass. USA]. To monitor the ECG (electrocardiogram): two electrodes were connected to the animal's arms and one electrode was connected to its left leg. The monitoring system was calibrated at the beginning of each experiment. Recording all the steps of the calibration. ECG and hemodynamic parameters were recorded continuously during the whole experiment.
Monitoring rate (speed of paper) was at 5 mm/sec. At different times (stabilization, after injections, blood pressure changes, etc.,) the monitoring rate was changed to 25 mm/sec. In addition routinely, every 5 minutes the monitoring rate was changed to 25 mm/sec. for 15 sec. ECG recordings were obtained at the same times as hemodynamic measurements.
The test compound was administered by bolus injection intravenously at different doses (2,4,6,8 mg/Kg body weight). Each dose was administrated twice in the same manner. The second dose was given after the hemodynamic parameters were recovered (or stabilized) following the first injection.

Data set [3] concerns Cat iris sphincter smooth muscle (SV-CISM-2) cells. Put plainly: cGMP assay (RIA) in cultured smooth muscle cells in presence of IBMX. The data set is classed as cell-based. Particulars: for cGMP formed % of control / cGMP formed: IBMX present; for cGMP formed: mean±SEM. As for the experimental part:
Cat iris sphincter smooth muscle (SV-CISM-2) cells were maintained in Dulbecco's modified Eagle medium (DMEM), supplemented with 10% fetal calf serum (FCS) and 50 μg/ml gentamicin (culture medium) as described by Ding et al. 1999. (Life Sci. Vol: 64 pp. 161-174) To initiate subculture, confluent SV-CISM-2 cells were washed with Ca^2+-Mg^2+ free Dulbecco's phosphate buffered salt solution (PBS) and treated with 0.05% trypsin in 0.5 mM EDTA for 3 minutes at 37° C. This was followed by addition of culture medium, and the cell suspension was centrifuged at 200 g for 5 minutes. The pelleted cells were suspended in culture medium and seeded in 6-well plates for the cGMP assay. Confluent cells, in 6-well plates were washed once with DMEM and incubated in 2 ml DMEM for 15 minutes at 37° C. IBMX (0.1 mM) was added and incubated for additional 10 minutes. The tested agent was then added and incubations continued for 10 minutes. Anantin (1 μM) or L-NAME (0.1 mM) were added along with IBMX, 10 minutes prior to addition of the tested compound. Reactions were stopped by replacing the medium with 1 ml ice-cold 5% trichloroacetic acid (TCA) (W/V). The obtained samples were homogenized, centrifuged and the supernatants were extracted with anhydrous diethylether. A 100 μl portion of the supernatant from each sample was taken; and after appropriate dilutions cGMP was assayed by radioimmunoassay RIA as described by the aforementioned Ding et al. 1999. Protein content was determinate by the method of Lowry with bovine serum albumin as standard as described in the aforementioned Ding et al. 1999. The data are presented as mean±SEM of three separate experiments with triplicate incubations for each data point.

The subject of data set [4] is cultured SV40 transformed cat iris sphincter smooth muscle (SV-CISM-2). Particulars: WO 01/39766, cited from earlier work; for elevation of cGMP levels in vitro: SV-CISM-2 cells; for ability to elevate cGMP levels in cultured smooth muscle cells: comparison of the two compounds.
Where [5] appears, read: 20 mg/Kg body weight i.v. bolus.
Setting [6] is: 20 mg/Kg body weight i.v. bolus, 30 minutes after injection.
Where [7] appears, read: 4 mg/Kg body weight, single dose.
Where [8] appears, read: 8 mg/Kg body weight i.v. bolus, 30 minutes after first injection, FIG. 1A.
Where [9] appears, read: 8 mg/Kg body weight i.v. bolus, 30 minutes after first injection, FIG. 1B.
[10] abbreviates: additional (second) bolus injection 8 mg/Kg, after 30 minutes.
Where [11] appears, read: oral administration, 80 or 125 mg/Kg.

As for `C1=COC2(CC1)CCCCO2` (stereo not shown) [1,7-dioxaspiro[5.5]undec-2-ene], the “reduction in diastolic blood pressure (range)” value in data set [1] (setting [5]) is 20-33%. Also, in data set [1] (setting [6]), the “reduction in systolic blood pressure (range)” value is reported as 18-28%. Further, in data set [1] (20 mg/Kg i.v. bolus), the duration of effect entry is given as “about 30 minutes” and the “time of maximal effect after the injection” value lay within 35 to 55 min.

`C1CCC2(CCCCO2)OC1` [1,7-dioxaspiro[5.5]undecane]: the “effect on systemic blood pressure” value in data set [2] (2 mg/Kg body weight, single and double dose) was “no effect”; in data set [2] (setting [7]), “mild hypotensive effect”. The “hypotensive effect after second injection” value in data set [2] (4 mg/Kg body weight, second injection of the same dose) is “more pronounced”. Also, the “duration of hypotensive effect” value in data set [2] (setting [7]) is “about 15 minutes”. Moreover, the entries for the “reduction in systolic blood pressure (average)” value in data set [2] (setting [8]) and in data set [2] (setting [10]) were 18.1% and 28.3%, respectively. Further, the “reduction in systolic blood pressure (range)” value is given as 10-30% in data set [2] (setting [8]); 15-42% in data set [2] (setting [10]); 20-30% in data set [1] (setting [6]); 15-28% in data set [1] (oral administration, 80 mg/Kg body weight, after 150 minutes); 20-30% in data set [1] (oral administration, 80 mg/Kg, after 150 minutes, stated under FIG. 5B (diastolic blood pressure)); 30-45% in data set [1] (oral administration, 125 mg/Kg, 150 minutes post injection). The “reduction in systolic blood pressure (range)” value in data set [1] (oral administration, 125 mg/Kg, after 150 minutes, stated under FIG. 5B (diastolic blood pressure)) is 40-53%. The entries for the “reduction in diastolic blood pressure (average)” value in data set [2] (setting [9]) and in data set [2] (setting [10]) were 20.5% and 36.5%, respectively. The figures for the “reduction in diastolic blood pressure (range)” value in data set [2] (setting [9]), in data set [2] (setting [10]) and in data set [1] (setting [5]) were 7-32%, 15-53% and 15-28%, respectively. Further, the “effect on heart contractility (ECG monitoring)” value in data set [2] (single and double dosage of 2-8 mg/Kg body weight i.v. bolus) is given as “no effect”. The duration of effect in data set [1] (20 mg/Kg i.v. bolus) is at least 90 min; in data set [1] (setting [11]), “about an hour”. Besides, the “time of maximal effect after the injection” value in data set [1] (20 mg/Kg i.v. bolus) was in the range of 110 to 120 min; in data set [1] (setting [11]), 150 to 220 min. The “cGMP formed % of control” value was 253 % of control in data set [3] (0.1 μM & Anantin (1 μM)), 182 % of control in data set [3] (0.1 μM & L-NAME (100 μM)) and 236 % of control in data set [3] (0.1 μM). Further, the figures for the cGMP formed in data set [3] (0.1 μM & Anantin (1 μM)), in data set [3] (0.1 μM & L-NAME (100 μM)) and in data set [3] (0.1 μM) were 1.32 ± 0.1 pmol/mg protein/10 min, 0.94 ± 0.15 pmol/mg protein/10 min and 1.23 ± 0.1 pmol/mg protein/10 min, respectively. For the same molecule, in data set [3] (0.1 μM, versus control), the “increase of cGMP concentration” value came to 2.36 times. Besides, in data set [4], the “elevation of cGMP levels in vitro” value is “elevate cGMP levels”. Besides, the “ability to elevate cGMP levels in cultured smooth muscle cells” value in data set [4] is recorded as “comparable ability to elevate cGMP levels”.

On to `C/C=C/C=C/CCCCCCCO` [E,E-8,10-Dodecadienol], for which, in data set [4], the “elevation of cGMP levels in vitro” value is given as “elevate cGMP levels”.

As for `COC(=O)[C@@H](N)CCCNC(=N)N[N+](=O)[O-]` [L-NAME, N^G-nitro-L-arginine methyl ester, reference compound], the “effect on 1,7-dioxaspiro[5.5]undecane-stimulated cGMP formation” value in data set [3] (tested together with 1,7-dioxaspiro[5.5]undecane 0.1 μM, Anantin 1 μM, L-NAME 100 μM) is given as “attenuated”.

Consider `CCCCCC/C=C\CCCCCC=O` [Z-7-Tetradecenal], for which the “elevation of cGMP levels in vitro” value in data set [4] is “elevate cGMP levels”.

Take `CCCC/C=C\CCCCCCCCCCOC(C)=O` [Z-11-Hexadecenyl-Acetate]: the “elevation of cGMP levels in vitro” value in data set [4] is on record as “elevate cGMP levels”.

Regarding `CCCC/C=C\CCCCCCCCCCCC=O` [Z-13-octadecenal, reference compound], the “effect on blood pressure” value in data set [2] (4 mg/Kg body weight bolus, two animals, single and double dose) is given as “no reduction”. For the same molecule, in data set [2] (8 mg/Kg body weight bolus injection, five animals, FIG. 2), the “effect on blood pressure” value is “uncontrolled reduction in blood pressure in three out of five animals tested”. In data set [2] (8 mg/Kg body weight, both injections), the “response of systemic blood pressure in the two surviving animals” value is recorded as “minimal or no response”. Also, the “toxicity of intravenous administration (mortality)” value in data set [2] (intravenous administration, five animals) is reported as “death of three out of five animals tested”. Further, in data set [4], the “elevation of cGMP levels in vitro” value is listed as “elevate cGMP levels” and the “ability to elevate cGMP levels in cultured smooth muscle cells” value is on record as “comparable ability to elevate cGMP levels”.
